Source: patent publication US20200024278A1, “COMPOSITION COMPRISING ANTIBIOTIC COMPOUND AND AN HETEROCYCLIC COMPOUND AND THEIR USE IN PREVENTING OR TREATING BACTERIAL INFECTIONS” (MUTABILIS, priority 2016, published 2020)

Key:
Experiment in all cases: MIC, broth microdilution (CLSI), substance alone or ATB combined with compound at 4 or 8 μg/mL
PAE 105250 = format: cell-based, P. aeruginosa; settings: PAE 105250; for MIC ATB combined with Example compound: compound @4 μg/ml
In short: (§1)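 Growth inhibition endpoint, read visually after 16-20 h at 35° C in ambient air. Cation-adjusted Mueller-Hinton broth, inoculum 5·10^5 CFU/mL, CLSI M7-A7 protocol.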

PAE UFR48 = format: cell-based, P. aeruginosa; settings: PAE UFR48; for MIC ATB combined with Example: Example @4 μg/ml; for MIC ATB combined with Example compound: compound @4 μg/ml
In short: as §1

PAE UFR90 = format: cell-based, P. aeruginosa; settings: PAE UFR90; for MIC ATB combined with Example: Example @4 μg/ml; for MIC ATB combined with Example compound: compound @4 μg/ml
In short: as §1

SAU 29213 = format: cell-based, S. aureus; settings: for MIC ATB combined with Example / MIC ATB combined with Example compound: SAU 29213; for MIC ATB combined with Example: Example @4 μg/ml; for MIC ATB combined with Example compound: compound @4 μg/ml
In short: as §1

SPN 49619 = format: cell-based, S. pneumoniae; settings: SPN 49619; for MIC ATB combined with Example: Example @4 μg/ml; for MIC ATB combined with Example compound: compound @4 μg/ml
In short: as §1

With `O=C1N2CC(n3ccnn3)=C[C@H](C2)N1OS(=O)(=O)[O-].[Na+]` [Example 16, sodium [(5R)-7-oxo-3-(triazol-1-yl)-1,6-diazabicyclo[3.2.1]oct-3-en-6-yl] sulfate] the “MIC ATB combined with Example compound” value (PAE 105250; MIC of CIP) was 0.125 mg/L, the “MIC ATB combined with Example compound” value (PAE 105250; MIC of CPO) was 8 mg/L and the MIC (PAE 105250; substance alone) was 32 mg/L. For the same compound, the “MIC ATB combined with Example” value (PAE UFR48; ATB ATM) was 8 mg/L, the “MIC ATB combined with Example” value (PAE UFR48; ATB FEP) was 16 mg/L and the “MIC ATB combined with Example” value (PAE UFR48; ATB FOS) was 32 mg/L. For the same compound, the “MIC ATB combined with Example” value (PAE UFR48; ATB MEM) was 0.25 mg/L, the “MIC ATB combined with Example” value (PAE UFR48; ATB PIP) was 16 mg/L and the “MIC ATB combined with Example compound” value (PAE UFR48; MIC of CIP) was 4 mg/L. For the same compound, the “MIC ATB combined with Example compound” value (PAE UFR48; MIC of CPO) was >32 mg/L, the MIC (PAE UFR48; substance alone) was 32 mg/L and the “MIC ATB combined with Example” value (PAE UFR90; ATB ATM) was 16 mg/L. For the same compound, the “MIC ATB combined with Example” value (PAE UFR90; ATB FEP) was 4 mg/L, the “MIC ATB combined with Example” value (PAE UFR90; ATB FOS) was 8 mg/L and the “MIC ATB combined with Example” value (PAE UFR90; ATB MEM) was 1 mg/L. For the same compound, the “MIC ATB combined with Example” value (PAE UFR90; ATB PIP) was >32 mg/L, the “MIC ATB combined with Example compound” value (PAE UFR90; MIC of CIP) was 1 mg/L and the “MIC ATB combined with Example compound” value (PAE UFR90; MIC of CPO) was 8 mg/L. For the same compound, the MIC (PAE UFR90; substance alone) was >32 mg/L, the “MIC ATB combined with Example” value (SAU 29213; ATB ATM) was <0.031 mg/L and the “MIC ATB combined with Example” value (SAU 29213; ATB FEP) was <0.031 mg/L. The “MIC ATB combined with Example” value (SAU 29213; ATB FOS) was “<=0.125 μg/mL”, the “MIC ATB combined with Example” value (SAU 29213; ATB MEM) was “<=0.031 μg/mL” and the “MIC ATB combined with Example” value (SAU 29213; ATB PIP) was <0.031 mg/L. The “MIC ATB combined with Example compound” value (SAU 29213; MIC of CIP) was <0.031 mg/L, the “MIC ATB combined with Example compound” value (SAU 29213; MIC of CLI) was <0.0010 mg/L and the “MIC ATB combined with Example compound” value (SAU 29213; MIC of CPO) was <0.031 mg/L. The “MIC ATB combined with Example compound” value (SAU 29213; MIC of DAP) was <0.0020 mg/L, the “MIC ATB combined with Example compound” value (SAU 29213; MIC of ERY) was <0.0020 mg/L and the “MIC ATB combined with Example compound” value (SAU 29213; MIC of LZD) was <0.0078 mg/L. For the same compound, the “MIC ATB combined with Example compound” value (SAU 29213; MIC of RIF) was <0.00012 mg/L, the “MIC ATB combined with Example compound” value (SAU 29213; MIC of SYN) was <0.0020 mg/L and the “MIC ATB combined with Example compound” value (SAU 29213; MIC of VAN) was <0.0039 mg/L. For the same compound, the MIC (SAU 29213; substance alone, SAU 29213 (MSSA 29213)) was 4 mg/L, the “MIC ATB combined with Example” value (SPN 49619; ATB ATM) was >32 mg/L and the “MIC ATB combined with Example” value (SPN 49619; ATB FEP) was “<=0.031 μg/mL”. The “MIC ATB combined with Example” value (SPN 49619; ATB FOS) was 8 mg/L, the “MIC ATB combined with Example” value (SPN 49619; ATB MEM) was “<=0.031 μg/mL” and the “MIC ATB combined with Example” value (SPN 49619; ATB PIP) was 0.5 mg/L. For the same compound, the “MIC ATB combined with Example compound” value (SPN 49619; MIC of CIP) was “<=0.031 μg/mL”, the “MIC ATB combined with Example compound” value (SPN 49619; MIC of CLI) was <0.0010 mg/L and the “MIC ATB combined with Example compound” value (SPN 49619; MIC of CPO) was “<=0.031 μg/mL”. The “MIC ATB combined with Example compound” value (SPN 49619; MIC of DAP) was 0.031 mg/L, the “MIC ATB combined with Example compound” value (SPN 49619; MIC of ERY) was <0.0020 mg/L and the “MIC ATB combined with Example compound” value (SPN 49619; MIC of LZD) was 0.125 mg/L. For the same compound, the “MIC ATB combined with Example compound” value (SPN 49619; MIC of RIF) was 0.00049 mg/L, the “MIC ATB combined with Example compound” value (SPN 49619; MIC of SYN) was 0.5 mg/L and the “MIC ATB combined with Example compound” value (SPN 49619; MIC of VAN) was 0.0078 mg/L. It also gave an MIC (SPN 49619; substance alone) of 4 mg/L.
